# Target: T1, sodium-proton exchanger of subtype 3 (NHE3) (Homo sapiens, UniProt P48764)
# T1 construct: expressed in transfected cells
# T1 sequence (P48764 26-834): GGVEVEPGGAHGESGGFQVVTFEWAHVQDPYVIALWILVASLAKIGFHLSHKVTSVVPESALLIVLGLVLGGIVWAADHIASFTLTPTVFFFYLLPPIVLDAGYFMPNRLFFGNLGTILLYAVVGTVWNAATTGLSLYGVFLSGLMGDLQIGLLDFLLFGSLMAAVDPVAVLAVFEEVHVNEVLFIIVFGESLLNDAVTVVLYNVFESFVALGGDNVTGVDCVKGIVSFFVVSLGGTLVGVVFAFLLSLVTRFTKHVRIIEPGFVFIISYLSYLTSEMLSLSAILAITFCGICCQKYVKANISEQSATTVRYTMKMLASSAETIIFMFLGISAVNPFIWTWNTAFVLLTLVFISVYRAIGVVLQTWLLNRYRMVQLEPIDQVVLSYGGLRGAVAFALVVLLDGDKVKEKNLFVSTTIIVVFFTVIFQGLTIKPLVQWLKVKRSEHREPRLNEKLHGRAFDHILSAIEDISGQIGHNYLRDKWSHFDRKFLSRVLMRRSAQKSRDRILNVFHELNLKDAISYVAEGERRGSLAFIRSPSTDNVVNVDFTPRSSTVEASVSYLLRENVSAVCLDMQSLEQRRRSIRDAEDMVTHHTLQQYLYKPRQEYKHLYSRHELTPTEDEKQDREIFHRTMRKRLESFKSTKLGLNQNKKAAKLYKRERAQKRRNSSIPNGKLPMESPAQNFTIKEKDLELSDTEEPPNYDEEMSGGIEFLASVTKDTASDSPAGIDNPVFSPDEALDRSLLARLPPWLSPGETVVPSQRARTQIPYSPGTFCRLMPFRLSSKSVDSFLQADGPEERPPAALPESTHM
# Test: Recovery of intracellular pH (pHi) after acidification in LAP1 cells stably expressing NHE3 (BCECF fluorescence, FLIPR)
# Assay type: cell-based
# Details: LAP1 cells stably expressing NHE3; pH recovery after acidification; range 1 is % inhibition at 10 μM; read-out: Activity range (inhibitory effect on NHE3)
SMILES,IC50 [nM],inhibition at 10 µM [%]
"CCCc1ccc(NC(C)=O)cc1O[C@H]1c2ccccc2CC[C@@H]1N1CCC[C@H](N)C1 (racemic) [Example 683, N-{3-[rac-trans-(1,2)-2-((S)-3-aminopiperidin-1-yl)-1,2,3,4-tetrahydronaphthalen-1-yloxy]-4-propylphenyl}acetamide]",1000 to 10000,
"NS(=O)(=O)c1ccc(O[C@H]2c3cc(Cl)cc(Cl)c3C[C@@H]2N2CC[C@@H](O)C2)c(F)c1 [Example 741, 4-[trans-(1S,2S)-4,6-Dichloro-2-((R)-3-hydroxy-pyrrolidin-1-yl)-indan-1-yloxy]-3-fluoro-benzenesulfonamide]",< 1000,
"O=C1CNC(=O)N1c1ccc(Cl)c(O[C@H]2c3cc(Cl)cc(F)c3C[C@@H]2N2CC[C@@H](O)C2)c1 [Example 438, 3-{4-chloro-3-[(1S,2S)-6-chloro-4-fluoro-2-((R)-3-hydroxypyrrolidin-1-yl)indan-1-yloxy]phenyl}imidazolidine-2,4-dione]",1000 to 10000,
"N#Cc1ccc(-c2ccc(O[C@H]3c4ccccc4CC[C@@H]3N3CCC[C@@H](N)C3)cc2)cc1 (racemic) [Example 517, 4′-[rac-trans-(1,2)-2-((R)-3-aminopiperidin-1-yl)-1,2,3,4-tetrahydronaphthalen-1-yloxy]-biphenyl-4-carbonitrile]",,20 to 50
"CC(=O)Nc1cccc(O[C@H]2c3ccccc3C[C@@H]2N2CCC[C@@H](N(C)C)C2)c1 [Example 692, N-{3-[trans-(1S,2S)-2-((R)-3-dimethylaminopiperidin-1-yl)indan-1-yloxy]phenyl}acetamide]",< 1000,
"CCc1ccc(O[C@@H]2c3ccccc3C[C@H]2N2CCC(N)C2)c(C(C)(C)C)c1 (mixture of isomers) [Example 267, 1-[rac-trans-(1,2)-1-(2-tert-butyl-4-ethylphenoxy)indan-2-yl]pyrrolidin-3-ylamine]",1000 to 10000,
"C[C@]1(O)CCN([C@H]2Cc3c(Cl)cc(Cl)cc3[C@@H]2Oc2ccc(S(C)(=O)=O)cc2)C1 (racemic) [Example 146, (S)-1-[(1S,2S)-4,6-dichloro-1-(4-methanesulfonylphenoxy)indan-2-yl]-3-methylpyrrolidin-3-ol]",1000 to 10000,
"CS(=O)(=O)c1ccccc1O[C@H]1c2ccccc2CC[C@@H]1N1CCC[C@@H](N)C1 (racemic) [Example 45, (R)-1-[rac-trans-(1,2)-1-(2-methanesulfonylphenoxy)-1,2,3,4-tetrahydronaphthalen-2-yl]piperidin-3-ylamine]",,20 to 50
"Fc1ccc(O[C@H]2c3cc(Cl)cc(Cl)c3C[C@@H]2N2CCNCC2)c2ncccc12 [Example 592, 8-((1S,2S)-4,6-dichloro-2-piperazin-1-ylindan-1-yloxy)-5-fluoroquinoline]",,20 to 50
"Cc1cc(C)c2cccnc2c1O[C@H]1c2ccccc2CC[C@@H]1N1CCC[C@H](N)C1 (racemic) [Example 187, (S)-1-[rac-trans-(1,2)-1-(5,7-dimethylquinolin-8-yloxy)-1,2,3,4-tetrahydronaphthalen-2-yl]piperidin-3-ylamine]",,20 to 50
"Cc1nnnn1-c1ccc(O[C@H]2c3cc(Cl)cc(Cl)c3C[C@@H]2N2CC[C@@H](O)C2)cc1 [Example 112, (R)-1-{(1S,2S)-4,6-dichloro-1-[4-(5-methyltetrazol-1-yl)phenoxy]indan-2-yl}pyrrolidin-3-ol]",1000 to 10000,
"CS(=O)(=O)c1ccc(O[C@H]2c3ccccc3C[C@@H]2N2CCCC2)cc1Cl (racemic) [Example 268, 1-[rac-trans-(1,2)-1-(3-chloro-4-methanesulfonylphenoxy)indan-2-yl]pyrrolidine]",,20 to 50
"NC(=O)Cc1c[nH]c2ccc(O[C@@H]3c4ccccc4C[C@H]3N3CCC(N)C3)cc12 (mixture of isomers) [Example 387, 2-{5-[rac-trans-(1,2)-2-(3-aminopyrrolidin-1-yl)indan-1-yloxy]-1H-indol-3-yl}acetamide]",1000 to 10000,
"NS(=O)(=O)c1ccc(O[C@@H]2c3ccccc3C[C@H]2NC2CCC2)c(F)c1 (racemic) [Example 709, 4-(rac-trans-(1,2)-2-Cyclobutylamino-indan-1-yloxy)-3-fluoro-benzenesulfonamide]",< 1000,
"N#Cc1ccc(O[C@H]2c3ccccc3C[C@@H]2N2CCCC2)cc1 (racemic) [Example 468, 4-(rac-trans-(1,2)-2-pyrrolidin-1-ylindan-1-yloxy)benzonitrile]",1000 to 10000,
"COc1ccc(C)cc1O[C@H]1c2ccccc2CC[C@@H]1N1CCC[C@H](N)C1 (racemic) [Example 157, (S)-1-[rac-trans-(1,2)-1-(2-methoxy-5-methylphenoxy)-1,2,3,4-tetrahydronaphthalen-2-yl]piperidin-3-ylamine]",,20 to 50
"Cc1nn(-c2ccc(O[C@H]3c4cc(Cl)cc(Cl)c4C[C@@H]3N3CC[C@@H](O)C3)cc2)c(=O)o1 [Example 733, 3-{4-[trans-(1S,2S)-4,6-Dichloro-2-((R)-3-hydroxy-pyrrolidin-1-yl)-indan-1-yloxy]-phenyl}-5-methyl-3H-[1,3,4]oxadiazol-2-one]",1000 to 10000,
"Cc1cccc2c1C[C@H](N1CCCC1)[C@H]2Oc1ccc(S(N)(=O)=O)cc1 (racemic) [Example 472, 4-(rac-trans-(1,2)-4-methyl-2-pyrrolidin-1-ylindan-1-yloxy)benzenesulfonamide]",1000 to 10000,
"N[C@H]1CCCN([C@H]2CCc3ccccc3[C@@H]2Oc2cccc3ccc(Cl)nc23)C1 (racemic) [Example 154, (S)-1-[rac-trans-(1,2)-1-(2-chloroquinolin-8-yloxy)-1,2,3,4-tetrahydronaphthalen-2-yl]piperidin-3-ylamine]",1000 to 10000,
"CC(=O)Nc1cccc(O[C@H]2c3cccc(C)c3C[C@@H]2N2CCCC2)c1 (racemic) [Example 653, N-[3-(rac-trans-(1,2)-4-methyl-2-pyrrolidin-1-ylindan-1-yloxy)phenyl]acetamide]",1000 to 10000,
"CS(=O)(=O)c1ccc(O[C@@H]2c3ccccc3C[C@H]2NCC2CCC2)cc1 (racemic) [Example 717, Cyclobutylmethyl-[rac-trans-(1,2)-1-(4-methanesulfonyl-phenoxy)-indan-2-yl]-amine]",1000 to 10000,
"CS(=O)(=O)Nc1ccc(C(=O)O[C@H]2c3ccccc3C[C@@H]2N2CCCC2)c(Cl)c1 [Example 394, 2-chloro-4-methanesulfonylaminobenzoic acid (1S,2S)-2-pyrrolidin-1-ylindan-1-yl ester]",1000 to 10000,
"N[C@@H]1CCCN([C@H]2Cc3c(Cl)cc(Cl)cc3[C@@H]2Oc2ccc(-n3ccnc3)cc2)C1 [Example 98, (R)-1-[trans-(1S,2S)-4,6-dichloro-1-(4-imidazol-1-ylphenoxy)indan-2-yl]piperidin-3-ylamine]",< 1000,
"CS(=O)(=O)c1ccc(O[C@H]2c3ccccc3CC[C@@H]2N2CCC[C@@H](N)C2)cc1 (racemic) [Example 73, (R)-1-[rac-trans-(1,2)-1-(4-methanesulfonylphenoxy)-1,2,3,4-tetrahydronaphthalen-2-yl]piperidin-3-ylamine]",< 1000,
"N[C@@H]1CCCN([C@@H]2Cc3ccccc3[C@H]2Oc2cccc(CN3CCCCC3)c2)C1 (racemic) [Example 58, (R)-1-[rac-trans-(1,2)-1-(3-piperidin-1-ylmethylphenoxy)indan-2-yl]piperidin-3-ylamine]",1000 to 10000,

# Source: patent publication US8822449B2, “Substituted aminoindanes and analogs thereof, and the pharmaceutical use thereof” (Sanofi, priority 2008, dated 2014)
